According to US10597391B2, “Urea-containing isoxazole derivatives as FXR agonists and methods of use thereof” (Enanta Pharmaceuticals, Inc., priority 2016, dated 2020):
Where two headings read alike, the source gives them in different places.

Biological target: T1, human FXR (NR1H4) (Homo sapiens, UniProt Q96RI1)
T1 sequence (Q96RI1 1-486): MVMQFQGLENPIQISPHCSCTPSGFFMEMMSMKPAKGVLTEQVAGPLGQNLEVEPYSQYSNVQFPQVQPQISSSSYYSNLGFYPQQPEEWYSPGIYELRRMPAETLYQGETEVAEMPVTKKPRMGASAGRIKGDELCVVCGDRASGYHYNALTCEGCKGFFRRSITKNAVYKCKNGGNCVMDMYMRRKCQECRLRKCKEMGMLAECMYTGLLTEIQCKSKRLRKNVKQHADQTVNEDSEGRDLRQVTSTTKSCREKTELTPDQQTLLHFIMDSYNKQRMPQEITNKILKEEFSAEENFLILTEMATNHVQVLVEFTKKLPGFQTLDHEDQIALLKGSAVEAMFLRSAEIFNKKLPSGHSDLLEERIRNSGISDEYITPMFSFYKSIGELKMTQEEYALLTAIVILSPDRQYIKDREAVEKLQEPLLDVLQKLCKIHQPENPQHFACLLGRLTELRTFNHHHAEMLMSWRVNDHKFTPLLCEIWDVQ
Test: Human FXR (NR1H4) Assay: Gal4 promoter driven luciferase reporter transactivation in CHO cells (Indigo Bioscience kit IB00601)
Type: cell-based
Conditions: for Emax: CHO, read-out: Efficacy (%); for EC50: Human FXR (NR1H4) reporter assay in CHO cells
Summary of the method: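 CHO reporter cells expressing human NR1H4 with luciferase driven by an FXR-responsive promoter (Gal4 system), run per manufacturer's kit. Compounds applied to plated cells, then incubated a further 22 hours at 37° C. Luciferase luminescence read after detection reagent as a surrogate of FXR activation, giving potency and efficacy.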

[1] = efficacy normalized to CDCA set as 100%

Row | Compound | Emax [1] | EC50 (potency range, read-out: EC50) | Emax | EC50 (EC50, potency range)
1 | O=C(Nc1cccc(-c2ccccn2)c1)N1C2CCC1CC(OCc1c(-c3c(Cl)cccc3Cl)noc1C1CC1)C2 (stereo not drawn) [Example 736] | 136% | < 0.01 µM |  | 
2 | O=C(Nc1cccc(-c2nccs2)c1)N1C2CCC1CC(OCc1c(-c3c(Cl)cccc3Cl)noc1C1CC1)C2 (stereo not drawn) [Example 737] | 179% | < 0.01 µM |  | 
3 | O=C(NCc1ccc(-c2ccccc2)cc1)N1C2CCC1CC(OCc1c(-c3c(Cl)cccc3Cl)noc1C1CC1)C2 (stereo not drawn) [Example 738] | 139% | 0.1 to 1 µM |  | 
4 | O=C(NCc1cncc(-c2ccccc2)c1)N1C2CCC1CC(OCc1c(-c3c(Cl)cccc3Cl)noc1C1CC1)C2 (stereo not drawn) [Example 739] | 108% | 0.01 to 0.1 µM |  | 
5 | O=C(NCc1ccccc1-c1ccccc1)N1C2CCC1CC(OCc1c(-c3c(Cl)cccc3Cl)noc1C1CC1)C2 (stereo not drawn) [Example 740] | 90% | < 0.01 µM |  | 
6 | CCOC(=O)c1ccccc1NC(=O)N1C2CCC1CC(OCc1c(-c3ccccc3OC(F)(F)F)noc1C1CC1)C2 (stereo not drawn) [Example 743] | 140% | > 1 µM |  | 
7 | O=C(O)c1ccccc1NC(=O)N1C2CCC1CC(OCc1c(-c3ccccc3OC(F)(F)F)noc1C1CC1)C2 (stereo not drawn) [Example 744] | 165% | > 1 µM |  | 
8 | COC(=O)c1ccc(NC(=O)N2C3CCC2CC(OCc2c(-c4ccccc4OC(F)(F)F)noc2C2CC2)C3)c(F)c1 (stereo not drawn) [Example 745] |  | 0.1 to 1 µM |  | 
9 | O=C(O)c1cccc(NC(=O)N2C3CCC2CC(OCc2c(-c4ccccc4OC(F)(F)F)noc2C2CC2)C3)c1F (stereo not drawn) [Example 746] | 156% | > 1 µM |  | 
10 | COC(=O)c1ccc(F)c(NC(=O)N2C3CCC2CC(OCc2c(-c4ccccc4OC(F)(F)F)noc2C2CC2)C3)c1 (stereo not drawn) [Example 747] | 145% | 0.1 to 1 µM |  | 
11 | O=C(O)c1ccc(F)c(NC(=O)N2C3CCC2CC(OCc2c(-c4ccccc4OC(F)(F)F)noc2C2CC2)C3)c1 (stereo not drawn) [Example 748] | 103% | 0.01 to 0.1 µM |  | 
12 | COC(=O)c1ccc(OC)c(NC(=O)N2C3CCC2CC(OCc2c(-c4ccccc4OC(F)(F)F)noc2C2CC2)C3)c1 (stereo not drawn) [Example 749] | 104% | 0.01 to 0.1 µM |  | 
13 | COc1ccc(C(=O)O)cc1NC(=O)N1C2CCC1CC(OCc1c(-c3ccccc3OC(F)(F)F)noc1C1CC1)C2 (stereo not drawn) [Example 750] | 76% | 0.1 to 1 µM |  | 
14 | COC(=O)c1cccc(OC)c1NC(=O)N1C2CCC1CC(OCc1c(-c3ccccc3OC(F)(F)F)noc1C1CC1)C2 (stereo not drawn) [Example 751] | 26% | 0.1 to 1 µM |  | 
15 | CS(=O)(=O)NC(=O)c1ccc(NC(=O)N2C3CCC2CC(OCc2c(-c4ccccc4OC(F)(F)F)noc2C2CC2)C3)cc1 (stereo not drawn) [Example 752] | 239% | > 1 µM |  | 
16 | CN(C)S(=O)(=O)NC(=O)c1ccc(NC(=O)N2C3CCC2CC(OCc2c(-c4ccccc4OC(F)(F)F)noc2C2CC2)C3)cc1 (stereo not drawn) [Example 753] | 217% | 0.01 to 0.1 µM |  | 
17 | CC(C)S(=O)(=O)NC(=O)c1ccc(NC(=O)N2C3CCC2CC(OCc2c(-c4ccccc4OC(F)(F)F)noc2C2CC2)C3)cc1 (stereo not drawn) [Example 754] | 236% | 0.1 to 1 µM |  | 
18 | O=C(NS(=O)(=O)C1CC1)c1ccc(NC(=O)N2C3CCC2CC(OCc2c(-c4ccccc4OC(F)(F)F)noc2C2CC2)C3)cc1 (stereo not drawn) [Example 755] | 220% | 0.1 to 1 µM |  | 
19 | O=C(NS(=O)(=O)c1ccccc1)c1ccc(NC(=O)N2C3CCC2CC(OCc2c(-c4ccccc4OC(F)(F)F)noc2C2CC2)C3)cc1 (stereo not drawn) [Example 756] | 205% | 0.1 to 1 µM |  | 
20 | CC(C)(C)c1ccc(S(=O)(=O)NC(=O)c2ccc(NC(=O)N3C4CCC3CC(OCc3c(-c5ccccc5OC(F)(F)F)noc3C3CC3)C4)cc2)cc1 (stereo not drawn) [Example 757] | 257% | 0.1 to 1 µM |  | 
21 | CC(C)S(=O)(=O)NC(=O)c1cccc(NC(=O)N2C3CCC2CC(OCc2c(-c4ccccc4OC(F)(F)F)noc2C2CC2)C3)c1 (stereo not drawn) [Example 758] | 233% | 0.1 to 1 µM |  | 
22 | O=C(NS(=O)(=O)c1ccccc1)c1cccc(NC(=O)N2C3CCC2CC(OCc2c(-c4ccccc4OC(F)(F)F)noc2C2CC2)C3)c1 (stereo not drawn) [Example 759] | 205% | > 1 µM |  | 
23 | COc1c(NC(=O)N2C3CCC2CC(OCc2c(-c4ccccc4OC(F)(F)F)noc2C2CC2)C3)cccc1C(=O)OC(C)(C)C (stereo not drawn) [Example 760] | 180% | > 1 µM |  | 
24 | COc1c(NC(=O)N2C3CCC2CC(OCc2c(-c4ccccc4OC(F)(F)F)noc2C2CC2)C3)cccc1C(=O)O (stereo not drawn) [Example 761] | 105% | > 1 µM |  | 
25 | COc1cccc(C(=O)O)c1NC(=O)N1C2CCC1CC(OCc1c(-c3ccccc3OC(F)(F)F)noc1C1CC1)C2 (stereo not drawn) [Example 762] | 6% | 0.1 to 1 µM |  | 

Row | Compound | Emax [1] | EC50 (potency range, read-out: EC50) | Emax | EC50 (EC50, potency range)
26 | COC(=O)c1cccc(F)c1NC(=O)N1C2CCC1CC(OCc1c(-c3ccccc3OC(F)(F)F)noc1C1CC1)C2 (stereo not drawn) [Example 763] | 211% | 0.1 to 1 µM |  | 
27 | COC(=O)c1ccc(NC(=O)N2C3CCC2CC(OCc2c(-c4ccccc4OC(F)(F)F)noc2C2CC2)C3)nc1 (stereo not drawn) [Example 764] | 230% | 0.1 to 1 µM |  | 
28 | CCOC(=O)c1ccnc(NC(=O)N2C3CCC2CC(OCc2c(-c4ccccc4OC(F)(F)F)noc2C2CC2)C3)c1 (stereo not drawn) [Example 765] | 272% | 0.01 to 0.1 µM |  | 
29 | CCOC(=O)c1cccc(NC(=O)N2C3CCC2CC(OCc2c(-c4ccccc4OC(F)(F)F)noc2C2CC2)C3)n1 (stereo not drawn) [Example 766] | 192% | > 1 µM |  | 
30 | CCOC(=O)c1cccnc1NC(=O)N1C2CCC1CC(OCc1c(-c3ccccc3OC(F)(F)F)noc1C1CC1)C2 (stereo not drawn) [Example 767] | 136% | 0.1 to 1 µM |  | 
31 | O=C(O)c1cccc(F)c1NC(=O)N1C2CCC1CC(OCc1c(-c3ccccc3OC(F)(F)F)noc1C1CC1)C2 (stereo not drawn) [Example 768] | 33% | > 1 µM |  | 
32 | O=C(O)c1ccc(NC(=O)N2C3CCC2CC(OCc2c(-c4ccccc4OC(F)(F)F)noc2C2CC2)C3)nc1 (stereo not drawn) [Example 769] | 132% | 0.1 to 1 µM |  | 
33 | O=C(O)c1ccnc(NC(=O)N2C3CCC2CC(OCc2c(-c4ccccc4OC(F)(F)F)noc2C2CC2)C3)c1 (stereo not drawn) [Example 770] | 93% | > 1 µM |  | 
34 | O=C(O)c1cccc(NC(=O)N2C3CCC2CC(OCc2c(-c4ccccc4OC(F)(F)F)noc2C2CC2)C3)n1 (stereo not drawn) [Example 771] | 54% | > 1 µM |  | 
35 | O=C(O)c1cccnc1NC(=O)N1C2CCC1CC(OCc1c(-c3ccccc3OC(F)(F)F)noc1C1CC1)C2 (stereo not drawn) [Example 772] | 31% | > 1 µM |  | 
36 | O=C(Nc1cccc(-c2ccccc2)c1)N1C2CCC1CC(NCc1c(-c3c(Cl)cccc3Cl)noc1C1CC1)C2 (stereo not drawn) [Example 773] |  |  | 135% | 0.01 to 0.1 µM
37 | COC(=O)c1ccc(NC(=O)N2C3CCC2CC(OCc2c(-c4c(Cl)cccc4Cl)noc2C2CC2)C3)cc1-c1cnn(C)c1 (stereo not drawn) [Example 774] | 102% | < 0.01 µM |  | 
38 | CCOC(=O)c1cnc2ccc(NC(=O)N3C4CCC3CC(OCc3c(-c5c(Cl)cccc5Cl)noc3C3CC3)C4)cc2c1 (stereo not drawn) [Example 775] | 82% | < 0.01 µM |  | 
39 | Cn1cc(-c2cc(NC(=O)N3C4CCC3CC(OCc3c(-c5c(Cl)cccc5Cl)noc3C3CC3)C4)ccc2C(=O)O)cn1 (stereo not drawn) [Example 776] | 11% | 0.1 to 1 µM |  | 
40 | CCOC(=O)c1ccc(NC(=O)N2C3CCC2CC(OCc2c(-c4c(Cl)cccc4Cl)noc2C2CC2)C3)cc1-c1cncnc1 (stereo not drawn) [Example 778] | 248% | < 0.01 µM |  | 
41 | O=C(O)c1cnc2cc(NC(=O)N3C4CCC3CC(OCc3c(-c5c(Cl)cccc5Cl)noc3C3CC3)C4)ccc2c1 (stereo not drawn) [Example 779] | 50% | 0.01 to 0.1 µM |  | 
42 | O=C(NCCS(=O)(=O)O)c1ccc(NC(=O)N2C3CCC2CC(OCc2c(-c4c(Cl)cccc4Cl)noc2C2CC2)C3)c(F)c1 (stereo not drawn) [Example 780] | 0% | 0.1 to 1 µM |  | 
43 | COC(=O)CNC(=O)c1ccc(NC(=O)N2C3CCC2CC(OCc2c(-c4c(Cl)cccc4Cl)noc2C2CC2)C3)c(F)c1 (stereo not drawn) [Example 781] | 100% | 0.01 to 0.1 µM |  | 
44 | O=C(O)c1ccc(NC(=O)N2C3CCC2CC(OCc2c(-c4c(Cl)cccc4Cl)noc2C2CC2)C3)cc1-c1cncnc1 (stereo not drawn) [Example 782] | 20% | 0.01 to 0.1 µM |  | 
45 | O=C(O)CNC(=O)c1ccc(NC(=O)N2C3CCC2CC(OCc2c(-c4c(Cl)cccc4Cl)noc2C2CC2)C3)c(F)c1 (stereo not drawn) [Example 783] | 0% | 0.1 to 1 µM |  | 
46 | COC(=O)c1ccc(NC(=O)N2C3CCC2CC(OCc2c(-c4c(Cl)cccc4Cl)noc2C2CC2)C3)cc1-c1ccc(OC)nc1 (stereo not drawn) [Example 784] | 102% | < 0.01 µM |  | 
47 | COC(=O)c1ccc2nc(NC(=O)N3C4CCC3CC(OCc3c(-c5c(Cl)cccc5Cl)noc3C3CC3)C4)ccc2c1 (stereo not drawn) [Example 785] | 46% | 0.01 to 0.1 µM |  | 
48 | COC(=O)c1ccc(NC(=O)N2C3CCC2CC(OCc2c(-c4c(Cl)cccc4Cl)noc2C2CC2)C3)nc1 (stereo not drawn) [Example 786] | 44% | 0.01 to 0.1 µM |  | 
49 | COc1ccc(-c2cc(NC(=O)N3C4CCC3CC(OCc3c(-c5c(Cl)cccc5Cl)noc3C3CC3)C4)ccc2C(=O)O)cn1 (stereo not drawn) [Example 787] | 97% | < 0.01 µM |  | 
50 | O=C(O)c1ccc(NC(=O)N2C3CCC2CC(OCc2c(-c4c(Cl)cccc4Cl)noc2C2CC2)C3)nc1 (stereo not drawn) [Example 788] | 31% | 0.01 to 0.1 µM |  | 
